{"source": "patent US12673921B2", "about": "“Substituted fluorine-containing imidazole salt compound, preparation method therefor, pharmaceutical composition thereof and use thereof” (XIAMEN VIVOHEALTHS TECHNOLOGY CO., LTD., priority 2019, dated 2026)", "key": {"human hepatocytes": {"tested_on": "human hepatocytes", "experiment": "Hepatocyte metabolism assay", "type": "in vitro ADME", "experimental": "Experimental procedures: a test sample (concentration: 10 μM) or a positive control (concentration: 30 μM) was co-incubated with hepatic cells of various genera (cell density: 1.0×10^6 cells/mL) for 120 min under the conditions of 37° C./5% CO2/saturated humidity. The sample was centrifuged after protein precipitation by using acetonitrile solution containing 0.1% formic acid according to the proportion of 1:2, the supernatant was blown dry by nitrogen, and then redissolved by using 200 μl of a 10% acetonitrile/water (containing 0.1% formic acid) solution. 15 μL of the obtained solution was introduced each time to an LC-MS instrument system for analysis."}, "[1]": {"experiment": "Liver microsome stability test, human liver microsome", "type": "in vitro ADME", "conditions": "microsomes, 0.5 mg protein/mL microsome, 1 μM compound, 37° C., NADPH, read-out: HLM 0.5 T1/2 (min), half life in human liver microsome", "experimental": "(§1) The experimental steps were as follows: • 1. Preparation of working solution • 1.1 Intermediate solution: 5 μL of a 10 mM stock solution of sample or control was taken out, and diluted with 495 μl of methanol (Conc.: 100 μM, 99% MeOH). • 1.2 Working solution: 50 μL of the intermediate solution was taken out, and diluted with 450 μL of a 100 mM potassium phosphate buffer (Conc.: 10 μM, 9.9% MeOH). • 2. Preparation of NADPH cofactor\n(§2) An appropriate amount of NADPH powder was weighed, and dissolved with a MgCl2 (10 mM) solution. • 3. Liver microsome • 3.1 Liver microsome information\n(§3) • 3.2 Preparation: a microsome working solution with an appropriate concentration was prepared by using a 100 mM potassium phosphate buffer. • 4. Stop solution\n(§4) Glacial acetonitrile, comprising 100 ng/ml Tolbutamide and 100 ng/ml Labetalol as internal standards. • 5. Experimental procedures • 5.1 10 μL of the working solution of sample or control was added per well to all plates (T0, T5, T10, T20, T30, T60, NCF60), except for the blank group; • 5.2 80 μL of the working solution of microsome was added per well to all plates, followed by incubation for 10 min at 37° C.; • 5.3 10 μL of a 100 mM potassium phosphate buffer was added per well to NCF60, followed by incubation at 37° C. and starting timer 1;\n(§5) • 5.4 After preheating, 10 μL of NADPH was added per well to each plate, and reaction was started;\n(§6) Final concentration of each component in the incubation medium:\n(§7) • 5.6 300 μL of the stop solution was added per well to stop the reaction; • 5.7 The system was shaken for about 10 min; • 5.8 The samples were centrifuged (4000 rpm) at 4° C. for 20 min; • 5.9 To 8 new 96-well plates, 300 μL of HPLC water was added per well, then 100 μL of the supernatant was added, mixed and subjected to LC/MS/MS.\n(§8) In the above table, HLM 0.5 T1/2 (min) refers to half life (min) of compounds in human liver microsome, DLM 0.5 T1/2 (min) refers to half life (min) of compounds in Beagle dog liver microsome."}, "[2]": {"experiment": "Liver microsome stability test, Beagle dog liver microsome", "type": "in vitro ADME", "conditions": "microsomes, 0.5 mg protein/mL microsome, 1 μM compound, 37° C., NADPH, read-out: DLM 0.5 T1/2 (min), half life in Beagle dog liver microsome", "experimental": "as §1, §2, §3, §4, §5, §6, §7, §8"}, "C57BL/6J male mice": {"tested_on": "C57BL/6J male mice", "experiment": "Sugar tolerance test of mice (ip-GTT)", "type": "in vivo, mouse", "conditions": "intragastric 0.2, 2 mg/kg, glucose 1 g/kg i.p. after 2 h"}}, "note": "Entries after “also recorded” stand apart in the source; their conditions may differ.", "data": [{"smiles": "Cc1n(CCCCCCCCCCCC(F)(F)C(F)(F)C(F)(F)C(F)(F)C(F)(F)F)cc[n+]1Cc1c(Cl)cccc1Cl.[Cl-]", "note": "[IB-33]", "values": [{"measurement": "metabolic stability in human hepatocytes (in words)", "setting": "human hepatocytes; human hepatocyte incubation, 120 min", "result": "relatively stable"}, {"measurement": "relative content of original drug remained", "setting": "human hepatocytes; human hepatocytes, after incubation for 120 min", "result": 79, "unit": "%"}, {"measurement": "Relative abundance (MS peak area %)", "setting": "human hepatocytes; incubation of IB-33 10 μM with human hepatocytes, 120 min, parent drug and its possible metabolites", "result": 79.31, "unit": "%"}, {"measurement": "half-life at 1 μM", "setting": "[1]", "result": "> 145", "unit": "min"}, {"measurement": "half-life at 1 μM", "setting": "[2]", "result": "> 145", "unit": "min"}, {"measurement": "blood sugar in sugar tolerance test (ip-GTT)", "setting": "C57BL/6J male mice", "result": "significantly lower blood sugar; also recorded: effective in lowering blood sugar"}]}]}
